Assay results reported in ChEMBL document CHEMBL1201862, “PubChem BioAssay data set” (2004).
One block for each compound: values may come before it. Calls of active or inactive are those of the source. Cut-off read from the data, not from the text of the source, for most assays here: actives have a measured IC50 and inactives only a lower limit.

Tests used:
[1] = target: T1, Peroxisome proliferator-activated receptor gamma (Homo sapiens, UniProt P37231); assay: PPARg ligand-binding domain binders, dose response, PPARg partial agonist project, biochemical, TR-FRET, LanthaScreen (AID 504446)
T1 sequence (P37231 whole entry): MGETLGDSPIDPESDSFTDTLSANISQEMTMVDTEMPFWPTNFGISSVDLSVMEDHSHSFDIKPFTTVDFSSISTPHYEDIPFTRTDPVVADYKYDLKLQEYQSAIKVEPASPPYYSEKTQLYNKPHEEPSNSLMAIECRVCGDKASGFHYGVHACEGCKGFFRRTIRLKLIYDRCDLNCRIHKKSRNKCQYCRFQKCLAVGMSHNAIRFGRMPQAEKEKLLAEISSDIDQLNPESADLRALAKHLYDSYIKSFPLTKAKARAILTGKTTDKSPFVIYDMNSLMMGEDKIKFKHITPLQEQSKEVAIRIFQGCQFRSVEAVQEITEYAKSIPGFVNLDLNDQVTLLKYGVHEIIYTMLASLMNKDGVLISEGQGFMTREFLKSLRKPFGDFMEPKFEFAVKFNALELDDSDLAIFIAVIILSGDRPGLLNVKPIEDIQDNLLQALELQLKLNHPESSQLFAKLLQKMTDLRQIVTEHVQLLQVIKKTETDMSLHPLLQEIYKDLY

[2] = target: T1, Peroxisome proliferator-activated receptor gamma; assay: PPARg ligand-binding domain binders, dose response, PPARg partial agonist project, biochemical, fluorescence polarization, PolarScreen (AID 504453)
[3] = target: T1, Peroxisome proliferator-activated receptor gamma; assay: PPARg partial agonists, dose response, cell-based, luminescence, assay provider (AID 504447); format: functional
[4] = target: T2, Bcl-2-related protein A1 (Mus musculus, UniProt Q07440); format: functional;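 note: confirmatory dose–response counterscreen on Bfl-1, used to check hits from a UBC13 polyubiquitin inhibitor campaign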
T2 sequence (Q07440 whole entry): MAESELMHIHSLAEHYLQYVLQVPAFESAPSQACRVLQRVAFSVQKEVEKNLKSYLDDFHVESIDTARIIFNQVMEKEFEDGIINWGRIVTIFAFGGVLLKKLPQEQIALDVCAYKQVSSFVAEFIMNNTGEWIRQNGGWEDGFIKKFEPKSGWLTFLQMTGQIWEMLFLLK

[5] = target: T3, Ubiquitin-conjugating enzyme E2 N (Homo sapiens, UniProt P61088); format: functional
T3 sequence (P61088 whole entry): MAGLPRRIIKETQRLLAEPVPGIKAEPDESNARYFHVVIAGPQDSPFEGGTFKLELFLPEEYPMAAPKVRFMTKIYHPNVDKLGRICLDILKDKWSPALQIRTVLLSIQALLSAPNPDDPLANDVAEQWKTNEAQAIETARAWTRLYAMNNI

[6] = target: T3, Ubiquitin-conjugating enzyme E2 N; format: functional; remark: listed apart in the source
[7] = target: Genome polyprotein (Hepatitis C virus, UniProt Q2Q167); assay: HCV core protein dimerization inhibitors, dose response, biochemical, TR-FRET (AID 2159); design: species or system Hepacivirus hominis;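 note: blocks dimerization of HCV core protein measured by TR-FRET between tagged core106 pairs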
[8] = target: T4, SUMO-activating enzyme (Homo sapiens, UniProt Q9UBT2); assay: SUMOylation inhibitor hit validation, confirmation, SUMOylation inhibitor project, biochemical, AlphaScreen (AID 2018); format: functional
[9] = target: T4, SUMO-activating enzyme; assay: inhibitors of in vitro SUMOylation cascade, primary screen, biochemical, HTRF, uHTS (AID 2006); format: protein-complex assay
[10] = target: T5, Carboxy-terminal domain RNA polymerase II polypeptide A small phosphatase 1 (Homo sapiens, UniProt Q9GZU7); assay: inhibitors of CTDSP1, concentration-response testing, biochemical assay, absorbance-based, actives from ultra-high-throughput screening (AID 540297); format: functional
T5 sequence (Q9GZU7 whole entry): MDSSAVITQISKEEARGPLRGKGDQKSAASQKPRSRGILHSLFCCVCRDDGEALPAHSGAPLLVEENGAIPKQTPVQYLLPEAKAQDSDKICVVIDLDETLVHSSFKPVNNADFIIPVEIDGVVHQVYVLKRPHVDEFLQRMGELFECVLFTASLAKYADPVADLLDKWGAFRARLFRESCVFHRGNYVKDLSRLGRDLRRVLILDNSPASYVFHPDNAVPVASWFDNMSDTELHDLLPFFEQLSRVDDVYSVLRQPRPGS

[11] = target: DNA (cytosine-5)-methyltransferase 1 (Homo sapiens, UniProt P26358); assay: DNMT1 methyltransferase inhibitors, confirmation, biochemical, fluorescent molecular beacon (AID 602386); format: functional
[12] = target: 26S proteasome non-ATPase regulatory subunit 14 (Homo sapiens, UniProt O00487); assay: inhibition of proteasome subunit RPN11 – biochemical, fluorescence polarization, uHTS hits, confirmation (AID 602368); format: functional
[13] = target: 72 kDa type IV collagenase (Homo sapiens, UniProt P08253); assay: Dose Response validation of uHTS RPN11 inhibitor hits using a MMP-2 Fluorescence assay.; format: functional
[14] = target: Prothrombin (Bos taurus, UniProt P00735); assay: thrombin inhibition, dose response, biochemical, fluorescence polarization, uHTS hits (AID 602369); format: functional
[15] = target: T6, Small ubiquitin-related modifier 1 (Homo sapiens, UniProt P63165); assay: inhibitors of SUMO1 peptide binding, dose response, biochemical, fluorescence polarization, uHTS hits (AID 624382); format: functional; settings: read-out: IC50_Mean
[16] = target: T6, Small ubiquitin-related modifier 1; assay: inhibitors of SUMO1 partner interactions, dose response, biochemical, FRET (AID 624383); format: functional; settings: read-out: IC50_Mean

T4 sequence (Q9UBE0 whole entry): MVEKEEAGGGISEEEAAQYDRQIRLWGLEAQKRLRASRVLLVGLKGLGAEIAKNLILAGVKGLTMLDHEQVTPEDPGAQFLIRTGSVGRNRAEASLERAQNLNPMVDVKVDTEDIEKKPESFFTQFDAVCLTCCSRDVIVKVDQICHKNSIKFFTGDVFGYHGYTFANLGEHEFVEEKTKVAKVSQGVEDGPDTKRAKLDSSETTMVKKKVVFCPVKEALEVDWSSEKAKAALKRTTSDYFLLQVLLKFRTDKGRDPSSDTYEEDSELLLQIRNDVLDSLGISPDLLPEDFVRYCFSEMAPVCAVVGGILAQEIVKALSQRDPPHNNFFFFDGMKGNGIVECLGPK
T4 sequence (Q9UBT2 whole entry): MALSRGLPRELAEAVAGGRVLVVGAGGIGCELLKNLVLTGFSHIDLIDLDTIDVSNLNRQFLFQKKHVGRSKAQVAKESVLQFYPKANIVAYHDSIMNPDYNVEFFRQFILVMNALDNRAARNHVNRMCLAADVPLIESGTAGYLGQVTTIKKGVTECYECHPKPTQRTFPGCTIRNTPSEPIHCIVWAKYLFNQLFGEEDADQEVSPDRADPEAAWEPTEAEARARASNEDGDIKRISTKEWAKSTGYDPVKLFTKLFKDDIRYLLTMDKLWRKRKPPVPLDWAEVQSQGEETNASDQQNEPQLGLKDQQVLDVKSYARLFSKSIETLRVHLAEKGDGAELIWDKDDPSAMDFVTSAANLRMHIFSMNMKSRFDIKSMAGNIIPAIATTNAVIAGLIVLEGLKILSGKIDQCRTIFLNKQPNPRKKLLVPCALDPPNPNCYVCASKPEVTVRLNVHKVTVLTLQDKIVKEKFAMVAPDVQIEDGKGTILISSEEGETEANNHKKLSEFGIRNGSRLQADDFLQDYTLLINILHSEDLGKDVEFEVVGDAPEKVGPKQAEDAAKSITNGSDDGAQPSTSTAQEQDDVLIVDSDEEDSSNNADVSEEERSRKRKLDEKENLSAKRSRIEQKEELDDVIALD
T6 sequence (P63165 whole entry): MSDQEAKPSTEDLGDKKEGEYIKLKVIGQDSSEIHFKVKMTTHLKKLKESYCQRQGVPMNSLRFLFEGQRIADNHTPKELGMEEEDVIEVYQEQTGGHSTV
DNA (cytosine-5)-methyltransferase 1, sequence (P26358 whole entry): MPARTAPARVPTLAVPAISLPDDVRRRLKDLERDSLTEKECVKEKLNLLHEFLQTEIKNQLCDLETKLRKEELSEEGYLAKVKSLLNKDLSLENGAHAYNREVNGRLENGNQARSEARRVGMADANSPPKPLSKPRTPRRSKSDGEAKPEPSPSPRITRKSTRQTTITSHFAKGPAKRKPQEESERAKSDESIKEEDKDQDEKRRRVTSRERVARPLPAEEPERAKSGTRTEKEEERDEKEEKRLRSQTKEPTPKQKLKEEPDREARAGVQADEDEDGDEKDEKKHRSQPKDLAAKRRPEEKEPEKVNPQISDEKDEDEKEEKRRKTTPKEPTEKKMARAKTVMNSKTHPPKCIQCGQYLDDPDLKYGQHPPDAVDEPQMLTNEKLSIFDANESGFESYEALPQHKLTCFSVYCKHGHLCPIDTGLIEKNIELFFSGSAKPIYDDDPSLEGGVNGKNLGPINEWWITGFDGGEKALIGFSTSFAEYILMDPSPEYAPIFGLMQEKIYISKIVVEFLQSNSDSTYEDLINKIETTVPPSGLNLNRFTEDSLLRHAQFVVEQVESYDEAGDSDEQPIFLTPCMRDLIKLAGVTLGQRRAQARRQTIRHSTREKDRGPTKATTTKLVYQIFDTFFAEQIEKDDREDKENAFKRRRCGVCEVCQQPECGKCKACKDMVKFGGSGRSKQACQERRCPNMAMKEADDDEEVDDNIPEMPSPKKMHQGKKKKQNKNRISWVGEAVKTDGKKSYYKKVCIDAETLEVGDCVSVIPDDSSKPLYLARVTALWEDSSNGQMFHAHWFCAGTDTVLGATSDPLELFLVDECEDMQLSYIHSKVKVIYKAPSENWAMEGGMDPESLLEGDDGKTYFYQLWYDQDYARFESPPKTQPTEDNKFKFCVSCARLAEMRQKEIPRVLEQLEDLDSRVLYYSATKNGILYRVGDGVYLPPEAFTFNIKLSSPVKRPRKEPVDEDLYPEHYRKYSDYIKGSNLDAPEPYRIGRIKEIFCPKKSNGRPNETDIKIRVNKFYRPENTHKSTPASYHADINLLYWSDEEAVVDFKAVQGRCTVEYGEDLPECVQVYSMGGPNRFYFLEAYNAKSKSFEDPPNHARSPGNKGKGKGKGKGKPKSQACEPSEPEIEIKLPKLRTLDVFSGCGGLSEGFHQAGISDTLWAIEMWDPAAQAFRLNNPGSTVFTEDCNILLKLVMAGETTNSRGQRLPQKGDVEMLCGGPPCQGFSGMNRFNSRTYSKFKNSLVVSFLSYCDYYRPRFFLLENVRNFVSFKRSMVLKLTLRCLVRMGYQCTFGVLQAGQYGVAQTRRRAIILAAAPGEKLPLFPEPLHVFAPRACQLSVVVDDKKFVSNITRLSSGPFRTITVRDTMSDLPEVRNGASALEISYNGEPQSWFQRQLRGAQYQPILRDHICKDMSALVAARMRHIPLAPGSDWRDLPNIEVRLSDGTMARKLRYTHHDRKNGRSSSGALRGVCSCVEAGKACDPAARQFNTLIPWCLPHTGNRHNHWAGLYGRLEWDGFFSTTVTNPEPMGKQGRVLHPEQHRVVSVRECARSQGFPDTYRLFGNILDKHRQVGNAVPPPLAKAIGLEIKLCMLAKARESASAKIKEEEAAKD
26S proteasome non-ATPase regulatory subunit 14, sequence (O00487 whole entry): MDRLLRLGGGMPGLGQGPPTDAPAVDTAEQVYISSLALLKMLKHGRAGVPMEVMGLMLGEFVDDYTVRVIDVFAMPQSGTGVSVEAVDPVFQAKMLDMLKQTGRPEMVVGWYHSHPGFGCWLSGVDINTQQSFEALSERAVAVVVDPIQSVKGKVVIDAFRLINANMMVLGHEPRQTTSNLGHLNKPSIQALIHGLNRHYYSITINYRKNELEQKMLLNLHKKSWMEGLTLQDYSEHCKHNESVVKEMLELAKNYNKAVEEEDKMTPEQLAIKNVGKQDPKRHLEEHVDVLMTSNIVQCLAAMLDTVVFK
Genome polyprotein, sequence (Q2Q167 whole entry): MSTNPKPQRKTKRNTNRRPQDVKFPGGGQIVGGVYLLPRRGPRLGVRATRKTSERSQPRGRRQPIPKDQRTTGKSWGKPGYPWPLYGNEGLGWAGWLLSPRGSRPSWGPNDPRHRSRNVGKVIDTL
72 kDa type IV collagenase, sequence (P08253 whole entry): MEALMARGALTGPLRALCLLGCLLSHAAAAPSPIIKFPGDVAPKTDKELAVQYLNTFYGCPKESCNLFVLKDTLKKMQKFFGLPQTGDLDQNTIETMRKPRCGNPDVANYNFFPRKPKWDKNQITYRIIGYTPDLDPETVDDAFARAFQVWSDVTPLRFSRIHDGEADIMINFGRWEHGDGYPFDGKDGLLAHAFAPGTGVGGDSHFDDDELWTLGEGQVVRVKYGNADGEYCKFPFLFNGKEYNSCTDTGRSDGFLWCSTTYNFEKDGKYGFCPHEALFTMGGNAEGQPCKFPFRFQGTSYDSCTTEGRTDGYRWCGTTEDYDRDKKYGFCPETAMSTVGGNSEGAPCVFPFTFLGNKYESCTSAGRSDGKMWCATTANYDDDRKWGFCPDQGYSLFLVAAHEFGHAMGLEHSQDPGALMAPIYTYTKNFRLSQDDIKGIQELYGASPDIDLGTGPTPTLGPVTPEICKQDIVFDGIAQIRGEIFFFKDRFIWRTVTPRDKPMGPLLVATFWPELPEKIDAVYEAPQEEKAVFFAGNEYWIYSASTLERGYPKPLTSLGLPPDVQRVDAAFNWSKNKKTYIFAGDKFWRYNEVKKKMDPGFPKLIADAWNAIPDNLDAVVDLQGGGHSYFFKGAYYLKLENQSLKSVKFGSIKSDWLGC

IC50 [1]: 0.6 µM (active)
IC50 [2]: 0.173 µM (active)
EC50 [3]: 0.181 µM (active)
SMILES: CCn1cnc2c1c(=O)n(Cc1cccc([N+](=O)[O-])c1)c(=O)n2Cc1ccccc1

IC50 [4]: > 20 µM (inactive)
IC50 [5]: 8.6 µM (active)
IC50 [6]: 5.96 µM (active)
SMILES: CCCCN=C(S)N=Nc1c(O)[nH]c2ccccc12

SMILES: COC(=O)c1c(NC(=O)COC(=O)c2ccc(NC(=O)CC#N)cc2)sc2c1CCCCC2
IC50 [7]: > 49.8 µM (not active)
IC50 [8]: 6.14 µM (active)
IC50 [9]: 7.43 µM (active)
IC50 [10]: 1.84 µM (active)
IC50 [11]: 3.35 µM (active)
IC50 [12]: 13.8 µM (active)
IC50 [13]: > 100 µM (inactive)
IC50 [14]: 85.9 µM (active)
IC50 [15]: > 66.6 µM (inactive)
IC50 [16]: 6.24 µM (active)
